# Assay results: patent US7781565B2 (priority 2006, dated 2010)
# Entries after “also recorded” stand apart in the source; their conditions may differ.
# System: NCI-60 cell lines
# Format: cell-based, human
Substance,Cell Line (NCI-60 cell line the peptide and its motif are associated with),Cell Line the peptide is associated with (peptide recovered from phage library selection on this NCI-60 cell line),Cell Line (NCI-60 cell line the peptide is associated with),Cell Line with which the peptide (and its tripeptide motif) is associated
RSLGSVG,DU-145 Prostate,,,
QKPGAVG,,T-47D Breast,,
VGRLQTT,UACC62 Melanoma,,,
QRSSDLT,M14 Melanoma,,,
SKYNLRS,,,HT-29 Colon,
MQLRGAV,OVCAR-4 Ovarian,,,
GGSSEFR,,,,Hop-92-Lung
AGRICEG,,,,CCRF-CEM Leukemia
SSSLAGS,,UO31 Renal,,
VRGSRWR,,,HT-29 Colon,
RSSLGLP,,,,H226-Lung
VGRLAKG,,,,Hop-62-Lung
GVSIYDL,,SN12C Renal,,
LQGSGAY,OVCAR-8 Ovarian,,,
ARLSLEL,,TK-10 Renal,,
ALVSFSV,,,,EKVX-Lung
ARNAASP,,,,A549-Lung
HSLVSQP,,,SNB-19 CNS; also recorded: SF-539 CNS,
LAQGRLA,,,HT-29 Colon,
GRVDPVD,,T-47D Breast,,
RGVVSGV,,,,Hop-92-Lung
NSGSVVS,,MDA-MB-231 Breast,,
GRRVSLV,,,,SR Leukemia

Substance,Cell Line (NCI-60 cell line the peptide and its motif are associated with),Cell Line the peptide is associated with (peptide recovered from phage library selection on this NCI-60 cell line),Cell Line (NCI-60 cell line the peptide is associated with),Cell Line with which the peptide (and its tripeptide motif) is associated
LAGSTRR,,,,SR Leukemia
LRSVGSW,,,HCT-15 Colon,
GARAVAP,,HS 578 T Breast,,
LRSSMML,,,MALME-3M Melanoma,
CAGRARR,,,SNB-75 CNS,
VMDRGVA,UACC 257 Melanoma,,,
RAVGYNA,,,MALME-3M Melanoma,
QRAAVIV,,,SNB-19 CNS; also recorded: SF-539 CNS,
MPAGLGV,,RXF393 Renal,,
NSVRGSR,SK-OV-3-3 Ovarian,,,
WGWRASS,,,,A549-Lung
EAVSGRR,,HS 578 T Breast,,
GGLVKRL,SK-MEL-2 Melanoma,,,
DWWAGVR,,,,CCRF-CEM Leukemia
FGVSQVH,,CAIK-1 Renal,,
NMGAVGS,DU-145 Prostate,,,
YYGERSS,OVCAR-5 Ovarian,,,
VRANGGS,,MDA-MB-231 Breast,,
SRKGLRS,786-0 Renal,,,
SGHGVSA,,,,H23-Lung
GSGYFIT,786-0 Renal,,,
RGARVSA,,,,Molt-4-Leukemia
GSVLGDY,,,COLO-205-Colon,

Substance,Cell Line (NCI-60 cell line the peptide and its motif are associated with),Cell Line the peptide is associated with (peptide recovered from phage library selection on this NCI-60 cell line),Cell Line (NCI-60 cell line the peptide is associated with),Cell Line with which the peptide (and its tripeptide motif) is associated
RWAGLVA,,,SF-295 CNS,
GVSKVRA,,,,A549-Lung
SGRVFRF,,HS 578 T Breast,,
GSSWVVD,,,,A549-Lung
PGGGRGR,,UO31 Renal,,
MDGVSTE,,A498 Renal,,
TAGSSRL,,,,H322-Lung
LGSSRVL,,,,Hop-92-Lung
GGSRAAE,,,,H322-Lung
LRGSHVA,,ACHN Renal,,
GVLPVVT,,,HCT-15 Colon,
RSYPLRS,,,SW620-Colon,
RASYYGV,,RXF393 Renal,,
TGRVVRR,,,,CCRF-CEM Leukemia
VRVGRLS,UACC62 Melanoma,,,
HRGGSQS,,,,Molt-4-Leukemia
AEPRGRV,,,,H460-Lung
YSIMRVS,,,SF-295 CNS,
DGPSGCS,,,SNB-75 CNS,
AARGELR,UACC62 Melanoma,,,
LWGLGWL,,,HCC-2998-Colon,
PRYGVRA,,,,RPMI-8226-Leukemia
GRVTWRS,OVCAR-5 Ovarian,,,

Substance,Cell Line (NCI-60 cell line the peptide and its motif are associated with),Cell Line the peptide is associated with (peptide recovered from phage library selection on this NCI-60 cell line),Cell Line (NCI-60 cell line the peptide is associated with),Cell Line with which the peptide (and its tripeptide motif) is associated
RLAVSGY,,,,H522-Lung
RGVASRS,,,,H460-Lung
EGARASD,,,,Hop-92-Lung
SGSVVQR,,,LOX-IMVI Melanoma,
GLRRDNG,OVCAR-3 Ovarian,,,
LVSTSNR,SK-MEL-2 Melanoma,,,
RASCFWD,,SN12C Renal,,
VHSLRAS,UACC 257 Melanoma,,,
AFGGGSM,,SN12C Renal,,
WRASPGM,,BT-549 Breast,,
GVRWNWS,,RXF393 Renal,,
AGDRGVA,DU-145 Prostate,,,
RGAVAFE,,,,SR Leukemia
WTKRGSV,,,,K-562-Leukemia
RLSGAGD,OVCAR-5 Ovarian,,,
GVLHSIA,,,,K-562-Leukemia
NLRVGAE,OVCAR-4 Ovarian,,,
PVSDGLV,SK-OV-3-3 Ovarian,,,
SDLGLRR,DU-145 Prostate,,,
YLGLGGL,DU-145 Prostate,,,
LRSGAGS,,,,Molt-4-Leukemia
RGVVSAK,,,,Hop-92-Lung
GRGSFES,,,,SR Leukemia

Substance,Cell Line (NCI-60 cell line the peptide and its motif are associated with),Cell Line the peptide is associated with (peptide recovered from phage library selection on this NCI-60 cell line),Cell Line (NCI-60 cell line the peptide is associated with),Cell Line with which the peptide (and its tripeptide motif) is associated
FVPRGSY,OVCAR-4 Ovarian,,,
GGALLRG,,,,Hop-92-Lung
LLSRAQA,,BT-549 Breast,,
ASLPPRA,,,,EKVX-Lung
AGGTDRT,,MDA-MB-231 Breast,,
WFKGPSV,,,SF-268 CNS,
GVLTRGN,OVCAR-8 Ovarian,,,
TWHAGGI,,ACHN Renal,,
TQVEARG,,HS 578 T Breast,,
TLVLGGS,,,,Hop-92-Lung
YFRARGS,786-0 Renal,,,
RSSSGSG,,TK-10 Renal,,
TGGSLGA,,,,EKVX-Lung
VRPRAVL,UACC62 Melanoma,,,
NVSRAVG,OVCAR-8 Ovarian,,,
GTLGGRV,,,HT-29 Colon,
AECCGGL,,ACHN Renal,,
LLRSAAP,,,,RPMI-8226-Leukemia
ASAGAVS,786-0 Renal,,,
DNDGARG,,,COLO-205-Colon,
CGEGLVV,DU-145 Prostate,,,
IGSGVGV,,NCI/ADR-RES Breast,,
NYMGPSA,,,,A549-Lung

Substance,Cell Line (NCI-60 cell line the peptide and its motif are associated with),Cell Line the peptide is associated with (peptide recovered from phage library selection on this NCI-60 cell line),Cell Line (NCI-60 cell line the peptide is associated with),Cell Line with which the peptide (and its tripeptide motif) is associated
RMLVSSF,UACC 257 Melanoma,,,
ARSSIVR,,,SF-268 CNS,
MVLRGSY,,,SNB-75 CNS,
EAGPRGV,,BT-549 Breast,,
LASLARP,,T-47D Breast,,
WDQGSGY,OVCAR-4 Ovarian,,,
RFYHLRS,,,,A549-Lung
DQQEAGS,786-0 Renal,,,
VLASLSG,IGROV1 Ovarian,,,
AVDGLRL,,,,SR Leukemia
RVGAGWP,,BT-549 Breast,,
VYYALRS,,,KM-12C Colon,
VVASLPH,,,HT-29 Colon,
GGRCGAE,,BT-549 Breast,,
GNGGARG,M14 Melanoma,,,
VGVRFSR,SK-MEL-28 Melanoma,,,
LFAVAAV,,,,Hop-62-Lung
SRSCGGL,,,LOX-IMVI Melanoma,
